Data as given in publication PMC4286469 (Cancer research, 2014).
Where a SMILES comes first, the peptide text is derived from it. The star is where a group is joined. Cbz = O=C(OCc1ccccc1)*; CH2F = FC*

Tests used:
B16F0 tumors [1] = assay: B16F0 tumors in immunodeficient NSG mice; format: in vivo; conditions: Fig. 4I
in vivo = conditions: C57Bl6, mouse, po, 30 mg/kg
p53 [2] = assay: p53 and p53 target levels in cultured p53^WT melanoma cells; format: cell-based, human; conditions: for accumulation of p53 and its transcriptional targets: p53^WT cells (SK-Mel5 and Hs294T), (−)-Nutlin-3 10µM, MLN8237 1µM, 5 days
B16F0 tumors [3] = assay: B16F0 tumors in syngeneic immunocompetent C57Bl/6 mice; format: in vivo
[4] = tested on: patient-derived metastatic melanoma tumors; conditions: independent of BRAF and NRAS mutational status; ref [7]; cited from earlier work
[5] = mouse, in vivo, po, 30 mg/kg
SK-Mel5 xenografts = assay: Marker analysis of SK-Mel5 xenograft tumors; format: in vivo, BALB/C nu/Foxn1 athymic nude mice; conditions: for p53 induction/activation in tumors (Western blot): (−)-Nutlin-3 200mg/kg
SK-Mel5 melanoma cells = assay: Viability/cytotoxicity of SK-Mel5 melanoma cells; format: cell-based, human; conditions: for viability of melanoma cells under continuous exposure: p53^WT SK-Mel5, (−)-Nutlin-3 10µM, MLN8237 1µM, 7 days, Fig. 1D, E
[6] = tested on: non-resectable melanoma tumors driven by BRAF^V600E; conditions: patients; ref [1]–[5]; cited from earlier work
SK-Mel5 cells = format: cell-based, human
[7] = Plasma and tumor pharmacokinetics in B16F0 melanoma-bearing C57Bl6 mice; conditions: 200 mg/kg oral
p53 [8] = assay: p53 level and activity in p53^MUT SK-Mel28 cells; format: cell-based, human
cells with p53 knockout = assay: Viability of cells with p53 knockout; format: cell-based; conditions: Fig. S2A

COc1cc(Nc2ncc3c(n2)-c2ccc(Cl)cc2C(c2c(F)cccc2OC)=NC3)ccc1C(=O)O [MLN8237]
clearance of necrotic areas in senescent tumors (B16F0 tumors [1]): abrogated
AUC(0-t) (in vivo): 42.7 µg·h/mL
accumulation of p53 and its transcriptional targets (p53 [2]): induced p53 accumulation
tumor growth (B16F0 tumors [3]; (−)-Nutlin-3 200mg/kg twice daily, MLN8237 30mg/kg once a day, oral gavage): partially inhibited tumor growth
CCL5 levels in melanoma cells and fibroblasts sorted from tumors (qRT-PCR) (B16F0 tumors [3]; Fig. 5B): increased
tumor necrosis (H&E) (B16F0 tumors [3]; immunocompetent mice, Fig. 4G): striking absence of necrosis
patient-derived metastatic melanoma tumors with markedly slowed growth [4]: > 75%
overall median MLN8237 AUC0–24hr, tumor tissue [5]: 37.4 µg·h/g
p53 induction/activation in tumors (Western blot) (SK-Mel5 xenografts; MLN8237 30mg/kg daily): moderate induction of p53
AURKA activity (auto-phosphorylation) in tumor lysates (SK-Mel5 xenografts; MLN8237 30mg/kg daily): inhibited AURKA activity
tumor senescence (SA-β-Gal activity) and proliferation markers (SK-Mel5 xenografts; MLN8237 30mg/kg daily): inhibition of cancer cell proliferation and induction of senescence
viability of melanoma cells under continuous exposure (SK-Mel5 melanoma cells): mostly cytostatic response

CC(C)(C)c1nc(-c2cccc(NS(=O)(=O)c3c(F)cccc3F)c2F)c(-c2ccnc(N)n2)s1 [dabrafenib]
median progression-free survival [6]: 6 months

COC(=O)C[C@H](NC(=O)[C@H](C)NC(=O)[C@@H](NC(=O)OCc1ccccc1)C(C)C)C(=O)CF [pan-caspase inhibitor, Z-VAD-FMK] (Cbz-Val-Ala-Asp(OMe)-CH2F)
effect of pan-caspase inhibitor on cytotoxic response to p53 activation (SK-Mel5 cells): did not interfere

(−)-Nutlin-3
cells showing strong p53 induction in vitro (p53 [2]; in vitro, Fig. S2B): 100%
accumulation of p53 and its transcriptional targets (p53 [2]): induced accumulation of p53 and its transcriptional targets p21, PUMA, BAX and MDM2
p53 levels in tumors (B16F0 tumors [3]; IF staining, Fig. 4D): not strongly induced
median (−)-Nutlin-3 AUC0–24hr, plasma ([7]; plasma): 292.7 µg·h/mL
median (−)-Nutlin-3 AUC0–24hr, tumor tissue ([7]; tumor tissue): 455.6 µg·h/mL
level and activity of p53 (p53 [8]): unaffected
p53 induction/activation in tumors (Western blot) (SK-Mel5 xenografts; MLN8237 30mg/kg daily): modest
tumor cells showing induction of apoptosis marker AIF (SK-Mel5 xenografts; Fig. 3C): no more than 15%
tumor cells with elevated/strong p53 staining (SK-Mel5 xenografts; Fig. S3, untreated control tumors 3–6%): 11%
viability of cells with p53 knockout (cells with p53 knockout): did not affect viability
cytotoxicity in senescent and non-senescent cells (SK-Mel5 melanoma cells; SK-Mel5, senescent (1 µM MLN8237 pre-treated) and non-senescent (vehicle pre-treated) cells, Fig. 1A, B): dose-dependent cytotoxicity
viability of melanoma cells under continuous exposure (SK-Mel5 melanoma cells): killed p53^WT melanoma cells
mitochondrial membrane potential (JC-1) (SK-Mel5 cells; (−)-Nutlin-3 10µM, MLN8237 1µM, 5 days): decrease in mitochondrial membrane potential
cleavage of caspase 3 (SK-Mel5 cells; Fig. S2C): not detected
Apoptosis Inducing Factor (AIF) activation and translocation (SK-Mel5 cells; SK-Mel5, IF staining): induced activation, mitochondrial release and nuclear translocation
apoptosis (Annexin V-FITC and PI staining) (SK-Mel5 cells; p53^WT melanoma cells, 10µM, 5 days): induced apoptosis
